Experimental data from patent US4904819A, “Bicyclic sulfonamide derivatives and process therefor” (Shionogi & Co., Ltd., priority 1987, dated 1990).

Columns and labels:
washed platelet = assay: Inhibition of platelet aggregation caused by collagen (washed platelet, aggregometer); format: cell-based, male rat (Sprague-Dowley); details: 0.05 h; platelet aggregating agent: collagen, 4 μg/ml final; rat washed platelet, 37° C.; measured 3 minutes after adding agent; read-out: Inhibition of Platelet Aggregation [50% Inhibitory Concentration]
Description: From the abdominal artery of a male rat (Sprague-Dowley, 8 weeks old) was collected 10 ml of blood with a syringe containing 1.5 ml of ACD (85 mM sodium citrate, 70 mM citric acid, 110 mM glucose) and 20 μg of prostaglandin E1. The blood is placed in a plastic test tube, mixed by moderate turning and centrifuged for 10 minutes at 160×g to give platelet rich plasma (PRP). To the prepared PRP was added apyrase (25 μg/ml) and the mixture was layered on 40% bovine serum albumin. The resulting mixture is centrifuged at 1200×g for 25 minutes. The platelet pellet suspended in a small amount of a buffer (137 mM NaCl, 2.7 mM KCl, 1.0 mM MgCl2, 3.8 mM NaH2 PO4, 3.8 mM Hepes, 5.6 mM glucose, 0.035% bovine serum albumin, pH 7.35) was applied on 10 ml of Sepharose 2B column and eluted with the buffer to prepare a washed platelet.
The platelet aggregation reaction was measured by an aggregometer (NKK HEMA TRACER 1 MODEL PAT-6A·6M, Niko bioscience). In a measuring cuvette was placed 245 μl of the washed platelet of which platelet number was adjusted to 5×10^5 /μl and set in the aggregometer. The washed platelet was stirred (1000 rpm) at 37° C. and 3.8 μl of 0.1M of CaCl2 was added thereto. One minutes after, 0.5 μl of a solution of test compound (dimethylsulfoxide solution) was added and 2 minutes after, 1 μl of Collagen reagent Horm® [HORMON-CHEMIE Munchen GMBH, final concentrate 4 μg/ml) as a platelet aggregating agent was added. The change in light transmittance caused by platelet aggregation was recorded against time elasped.
50% aggregation inhibitory rate was calculated from the aggregation inhibitory rate (which was measured 3 minutes after adding a platelet aggregating agent). The light transmittance for the washed platelet and the buffer were setted at 0% and 100%, respectively.

[1] = system: platelet; smooth muscle of bronchi, and of coronary, cerebral and pulmonary arteries; details: "it is said that"; prior art; cited from earlier work

Compound	IC50 (washed platelet) [nM]	concentration at which the strong action occurs [1]
CC1(C)[C@H]2C[C@H](C/C=C\CCCC(=O)O)[C@@H](NS(=O)(=O)c3ccc(Cl)cc3)[C@@H]1C2 [Compound 7b-d]	5.3	
CC1(C)[C@H]2C[C@H](C/C=C\CCCC(=O)O)[C@@H](NS(=O)(=O)c3ccc([N+](=O)[O-])cc3)[C@@H]1C2 [Compound 7b-h]	26	
CC1(C)[C@H]2C[C@H](C/C=C\CCCC(=O)O)[C@@H](NS(C)(=O)=O)[C@@H]1C2 [Compound 7b-n]	480	
CCc1ccc(S(=O)(=O)N[C@@H]2[C@@H](C/C=C\CCCC(=O)O)C[C@H]3C[C@@H]2C3(C)C)cc1 [Compound 7b-g]	9.9	
CC1(C)C2CC(NCC(O)Cc3ccccc3)C(C/C=C\CCCC(=O)O)C1C2 (stereo not drawn) [ONO-11120, reference compound]	115	
CC1(C)[C@H]2C[C@H](C/C=C\CCCC(=O)O)[C@@H](NS(=O)(=O)c3ccc4ccccc4c3)[C@@H]1C2 [Compound 7b-m]	4.3	
COc1ccc(S(=O)(=O)N[C@@H]2[C@@H](C/C=C\CCCC(=O)O)C[C@H]3C[C@@H]2C3(C)C)cc1 [Compound 7b-i]	3.4	
Cc1ccc(S(=O)(=O)N[C@@H]2[C@@H](C/C=C\CCCC(=O)O)C[C@H]3C[C@@H]2C3(C)C)cc1 [Compound 7b-b]	1.7	
CC1(C)[C@H]2C[C@H](C/C=C\CCCC(=O)O)[C@@H](NS(=O)(=O)CCCc3ccccc3)[C@@H]1C2 [Compound 7b-q]	12	
Cc1ccc(S(=O)(=O)N[C@H]2[C@@H](C/C=C\CCCC(=O)O)C[C@H]3C[C@@H]2C3(C)C)cc1 [Compound 7a-b]	115	
CC1(C)[C@H]2C[C@H](C/C=C\CCCC(=O)O)[C@@H](NS(=O)(=O)c3ccc(O)cc3)[C@@H]1C2 [Compound 7b-k]	1.8	
CCCCC[C@H](O)/C=C/[C@H]1O[C@H]2C[C@H](O2)[C@@H]1C/C=C\CCCC(=O)O [thromboxane A2]		10^-10 to 10^-11 M

More lines, main results first:

IC50 (washed platelet) [nM]	Compound	concentration at which the strong action occurs [1]
240	CC1(C)[C@H]2C[C@H](C/C=C\CCCC(=O)O)[C@@H](NS(=O)(=O)Cc3ccccc3)[C@@H]1C2 [Compound 7b-o]	
0.7	CC1(C)[C@H]2C[C@H](C/C=C\CCCC(=O)O)[C@@H](NS(=O)(=O)c3ccccc3)[C@@H]1C2 [Compound 7b-a]	
37	CC1(C)[C@H]2C[C@@H](C/C=C\CCCC(=O)O)[C@@H](NS(=O)(=O)c3ccccc3)[C@@H]1C2 [Compound 7d-a]	
1.4	CC1(C)[C@H]2C[C@H](C/C=C/CCCC(=O)O)[C@@H](NS(=O)(=O)c3ccccc3)[C@@H]1C2 [Compound 10b-a]	
9.9	CC1(C)[C@H]2C[C@H](C/C=C\CCCC(=O)O)[C@@H](NS(=O)(=O)c3ccc(-c4ccccc4)cc3)[C@@H]1C2 [Compound 7b-l]	
1.3	CC1(C)[C@H]2C[C@H](C/C=C\CCCC(=O)O)[C@@H](NS(=O)(=O)c3cccc(Cl)c3)[C@@H]1C2 [Compound 7b-f]	
6.4	CC1(C)[C@H]2C[C@H](C/C=C\CCCC(=O)O)[C@@H](NS(=O)(=O)c3ccccc3Cl)[C@@H]1C2 [Compound 7b-e]	
13	CC1(C)[C@H]2C[C@H](C/C=C\CCCC(=O)O)[C@@H](NS(=O)(=O)CCc3ccccc3)[C@@H]1C2 [Compound 7b-p]	
11	CC1(C)[C@H]2C[C@H](C/C=C\CCCC(=O)O)[C@H](NS(=O)(=O)c3ccccc3)[C@@H]1C2 [Compound 7a-a]	
